Assay [1] relates to BJ. Put plainly: cytotoxicity toward BJ-TERT fibroblasts, dose response, cell-based, RAS-independent, luminescence (AID 1933). In kind it is functional. The conditions noted are these: Homo sapiens.
For assay [2], the target named is Beta-galactosidase (Escherichia coli, UniProt Q8VNN2). In words: PubChem AID 485352. In kind it is functional.
Assay [3] deals with BJ. In words: cells. In kind it is functional, cell-based. The conditions noted are these: Homo sapiens.
The target in assay [4] is T1, Type-1 angiotensin II receptor (Homo sapiens, UniProt P30556).
T1 sequence (P30556 whole entry): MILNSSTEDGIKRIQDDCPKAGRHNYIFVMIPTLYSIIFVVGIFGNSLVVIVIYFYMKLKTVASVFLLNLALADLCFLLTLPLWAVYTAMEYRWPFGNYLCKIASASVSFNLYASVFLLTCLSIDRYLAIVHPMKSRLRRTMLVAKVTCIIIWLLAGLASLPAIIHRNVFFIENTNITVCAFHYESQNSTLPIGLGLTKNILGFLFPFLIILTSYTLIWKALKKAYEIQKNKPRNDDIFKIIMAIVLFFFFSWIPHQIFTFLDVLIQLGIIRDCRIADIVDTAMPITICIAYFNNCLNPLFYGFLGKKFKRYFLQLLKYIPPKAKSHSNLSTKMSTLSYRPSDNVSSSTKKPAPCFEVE
In words: AT1 receptor antagonists, dose response, selectivity assay for APJ receptor antagonist project, cell-based, uHTS hits (AID 463214).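 Also: antagonist potency against angiotensin II stimulated AT1 response.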 In kind it is functional.

Assay [5] deals with BJ. In words: cytotoxicity toward BJ-TERT-LT-ST fibroblasts, dose response, cell-based, RAS-independent, luminescence (AID 1935).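 Also: BJ fibroblasts immortalized with TERT plus LT and ST oncogenes.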 The conditions noted are these: Homo sapiens. In kind it is functional.
Assay [6] can be described thus: cytotoxicity toward DRD oncogenic fibroblasts, dose response, cell-based, non-viral oncogenic, luminescence (AID 1934). In kind it is functional. To be noted: Homo sapiens.
Assay [7] can be described thus: Luminescence Cell-Based Dose Retest to Confirm Inhibitors of Cancer Stem Cells. [Related pubchem assays (depositor defined):AID2717, AID2721]. In kind it is functional. To be noted: Homo sapiens.
Assay [8] deals with Vero. In words: cells. In kind it is functional, cell-based. The conditions noted are these: Chlorocebus sabaeus.
Assay [9] concerns BJ. In words: cytotoxicity toward Ras-transformed BJeLR fibroblasts, dose response, cell-based, alamar blue fluorescence, cherrypicked samples (AID 2631).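 Also: confirmatory dose-response assay in RAS-dependent BJ fibroblasts engineered with TERT, LT and ST, with cytotoxicity read by fluorescence.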 In kind it is functional. To be noted: Homo sapiens.
Assay [10] concerns Vero. In words: cells. To be noted: Chlorocebus sabaeus. In kind it is functional.
A short description of assay [11]: Shn3 3'UTR reporter inhibitors, dose response, cell-based, Clone20 osteoblasts, firefly luciferase, cherry-picked (AID 624132).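 Also: firefly luciferase luminescence from reporter carrying the Shn3 3'UTR in osteoblasts.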 In kind it is functional.
Assay [12] is described as follows: HepG2 cell cytotoxicity, dose response, cytotoxicity control for Shn3 inhibitor project, CellTiter-Glo, cherry-picked (AID 624134). In kind it is functional, cell-based. On the technique in general: In ATP-based viability assays light output follows the ATP content of the culture.
Assay [13] in a line: control 3'UTR Renilla luciferase suppression, dose response, counter-screen for Shn3 inhibitor project, cell-based, Clone20-Shn3RL, cherry-picked (AID 624133). In kind it is functional.
Assay [14] concerns the target T2, Bcl-2-related protein A1 (Mus musculus, UniProt Q07440).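 Also: confirmatory dose–response counterscreen on Bfl-1, used to check hits from a UBC13 polyubiquitin inhibitor campaign.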
T2 sequence (Q07440 whole entry): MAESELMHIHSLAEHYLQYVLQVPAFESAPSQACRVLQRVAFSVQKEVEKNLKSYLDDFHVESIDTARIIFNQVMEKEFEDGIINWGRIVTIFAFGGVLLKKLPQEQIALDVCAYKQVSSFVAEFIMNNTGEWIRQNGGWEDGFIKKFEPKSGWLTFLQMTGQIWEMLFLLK
In kind it is functional.

The target of assay [15] is T3, Ubiquitin-conjugating enzyme E2 N (Homo sapiens, UniProt P61088).
T3 sequence (P61088 whole entry): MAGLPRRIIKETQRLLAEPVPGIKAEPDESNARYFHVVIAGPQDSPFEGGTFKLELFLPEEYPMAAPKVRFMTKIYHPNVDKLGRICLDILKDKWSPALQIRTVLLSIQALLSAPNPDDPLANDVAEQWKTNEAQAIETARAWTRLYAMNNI
In kind it is functional.

The target of assay [16] is T3, Ubiquitin-conjugating enzyme E2 N. In kind it is functional. This is another data set of the same source.
Assay [17] addresses Nonstructural protein 1 (Influenza A virus, UniProt Q194T2). In kind it is functional, Influenza A virus (A/California/07/2009(H1N1)).
Assay [18] deals with T4, Rac GTPase-activating protein 1 (Homo sapiens, UniProt Q9H0H5).
T4 sequence (Q9H0H5 whole entry): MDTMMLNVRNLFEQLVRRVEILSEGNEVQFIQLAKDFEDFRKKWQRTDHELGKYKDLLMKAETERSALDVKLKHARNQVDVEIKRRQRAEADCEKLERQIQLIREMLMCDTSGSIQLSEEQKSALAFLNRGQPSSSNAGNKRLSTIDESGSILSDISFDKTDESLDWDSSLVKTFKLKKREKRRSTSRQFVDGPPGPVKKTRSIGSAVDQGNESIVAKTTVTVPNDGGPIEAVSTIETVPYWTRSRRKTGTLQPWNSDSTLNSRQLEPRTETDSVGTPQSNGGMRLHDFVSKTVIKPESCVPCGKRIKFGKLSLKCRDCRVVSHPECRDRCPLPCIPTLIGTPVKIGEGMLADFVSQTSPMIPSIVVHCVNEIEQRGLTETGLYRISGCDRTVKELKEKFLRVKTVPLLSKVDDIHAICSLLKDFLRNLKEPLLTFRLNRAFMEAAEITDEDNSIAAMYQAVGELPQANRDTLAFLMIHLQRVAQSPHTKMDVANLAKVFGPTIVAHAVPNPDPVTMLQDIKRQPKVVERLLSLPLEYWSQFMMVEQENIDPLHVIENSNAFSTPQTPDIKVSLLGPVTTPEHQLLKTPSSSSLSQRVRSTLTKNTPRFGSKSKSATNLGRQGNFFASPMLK
Put plainly: MgcRacGAP GTPase-activating activity inhibitors, confirmation, biochemical, ADP Hunter fluorescence, primary and confirmatory (AID 624330). In kind it is functional.

Assay [19] deals with T5, Caspase-3 (Homo sapiens, UniProt P42574).
T5 sequence (P42574 whole entry): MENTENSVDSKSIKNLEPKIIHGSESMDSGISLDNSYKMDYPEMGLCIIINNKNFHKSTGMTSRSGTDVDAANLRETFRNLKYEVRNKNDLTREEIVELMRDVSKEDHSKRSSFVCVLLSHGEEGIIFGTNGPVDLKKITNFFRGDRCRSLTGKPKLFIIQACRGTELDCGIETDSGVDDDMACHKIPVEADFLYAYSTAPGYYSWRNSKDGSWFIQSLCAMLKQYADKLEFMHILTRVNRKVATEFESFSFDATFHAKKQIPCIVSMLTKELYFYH
In kind it is functional.

The target of assay [20] is T6, Sentrin-specific protease 7 (Homo sapiens, UniProt Q9BQF6).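 Also: Luminescence-based dose-response confirmation of ultra-high-throughput screening hits, measuring inhibition of SENP7.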
T6 sequence (Q9BQF6 whole entry): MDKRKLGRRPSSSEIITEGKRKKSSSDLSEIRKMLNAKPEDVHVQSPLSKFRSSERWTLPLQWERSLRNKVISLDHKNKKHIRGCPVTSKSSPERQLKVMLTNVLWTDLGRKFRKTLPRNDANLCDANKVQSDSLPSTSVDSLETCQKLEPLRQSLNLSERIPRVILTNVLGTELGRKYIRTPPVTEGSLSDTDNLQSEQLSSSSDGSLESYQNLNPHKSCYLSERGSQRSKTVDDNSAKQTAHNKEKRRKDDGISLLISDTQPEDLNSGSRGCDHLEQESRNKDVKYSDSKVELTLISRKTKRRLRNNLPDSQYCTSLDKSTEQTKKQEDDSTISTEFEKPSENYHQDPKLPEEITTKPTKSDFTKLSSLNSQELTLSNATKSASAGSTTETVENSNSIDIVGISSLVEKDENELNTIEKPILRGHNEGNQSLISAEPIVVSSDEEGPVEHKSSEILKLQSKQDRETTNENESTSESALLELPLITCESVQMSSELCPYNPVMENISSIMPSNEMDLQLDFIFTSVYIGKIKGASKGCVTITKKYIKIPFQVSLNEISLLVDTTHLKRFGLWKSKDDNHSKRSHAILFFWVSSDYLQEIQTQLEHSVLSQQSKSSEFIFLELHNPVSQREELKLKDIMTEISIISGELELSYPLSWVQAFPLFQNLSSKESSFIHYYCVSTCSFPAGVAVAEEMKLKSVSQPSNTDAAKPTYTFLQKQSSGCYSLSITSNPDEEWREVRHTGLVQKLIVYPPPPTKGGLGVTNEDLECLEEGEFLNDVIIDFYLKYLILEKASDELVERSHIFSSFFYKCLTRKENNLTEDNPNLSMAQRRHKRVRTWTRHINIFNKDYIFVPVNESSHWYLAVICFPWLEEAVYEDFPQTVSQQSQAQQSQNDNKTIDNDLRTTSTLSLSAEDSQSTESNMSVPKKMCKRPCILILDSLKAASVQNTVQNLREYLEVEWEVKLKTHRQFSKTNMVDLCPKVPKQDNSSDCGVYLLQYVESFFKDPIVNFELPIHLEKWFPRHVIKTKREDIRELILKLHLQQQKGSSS
In kind it is functional.

Assay [21] addresses T7, Sentrin-specific protease 6 (Homo sapiens, UniProt Q9GZR1).
T7 sequence (Q9GZR1 whole entry): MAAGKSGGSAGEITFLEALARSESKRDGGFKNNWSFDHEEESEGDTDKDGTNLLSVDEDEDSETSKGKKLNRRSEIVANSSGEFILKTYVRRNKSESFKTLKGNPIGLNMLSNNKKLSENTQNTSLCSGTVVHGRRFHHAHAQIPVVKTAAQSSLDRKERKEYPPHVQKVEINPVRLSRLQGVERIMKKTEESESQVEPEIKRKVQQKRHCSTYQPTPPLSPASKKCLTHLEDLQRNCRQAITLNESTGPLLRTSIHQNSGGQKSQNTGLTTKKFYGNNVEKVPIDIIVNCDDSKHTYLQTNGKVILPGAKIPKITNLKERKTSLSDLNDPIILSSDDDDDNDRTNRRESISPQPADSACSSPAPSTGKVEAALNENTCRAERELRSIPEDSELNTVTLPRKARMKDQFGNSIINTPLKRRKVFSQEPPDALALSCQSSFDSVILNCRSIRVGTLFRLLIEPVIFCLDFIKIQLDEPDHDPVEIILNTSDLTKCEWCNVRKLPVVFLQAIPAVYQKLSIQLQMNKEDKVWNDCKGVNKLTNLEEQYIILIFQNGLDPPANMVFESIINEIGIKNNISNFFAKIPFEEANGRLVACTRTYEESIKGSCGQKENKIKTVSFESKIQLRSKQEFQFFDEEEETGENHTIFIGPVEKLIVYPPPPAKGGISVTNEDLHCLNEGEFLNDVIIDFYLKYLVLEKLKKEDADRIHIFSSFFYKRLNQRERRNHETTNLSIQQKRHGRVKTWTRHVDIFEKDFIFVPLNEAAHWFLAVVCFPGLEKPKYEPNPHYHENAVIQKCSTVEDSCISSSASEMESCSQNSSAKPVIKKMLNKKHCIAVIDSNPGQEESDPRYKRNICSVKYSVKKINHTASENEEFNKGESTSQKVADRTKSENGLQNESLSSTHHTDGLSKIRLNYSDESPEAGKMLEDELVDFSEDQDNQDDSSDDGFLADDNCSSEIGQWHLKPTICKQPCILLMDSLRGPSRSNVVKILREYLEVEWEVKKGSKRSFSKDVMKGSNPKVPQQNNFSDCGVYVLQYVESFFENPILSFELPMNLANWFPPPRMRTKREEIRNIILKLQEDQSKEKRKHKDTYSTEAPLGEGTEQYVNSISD
In kind it is functional.

The target in assay [22] is T8, Sentrin-specific protease 8 (Homo sapiens, UniProt Q96LD8).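 Also: luminescence read-out of SENP8 inhibition, dose-response confirmation following an ultra-high-throughput screen.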
T8 sequence (Q96LD8 whole entry): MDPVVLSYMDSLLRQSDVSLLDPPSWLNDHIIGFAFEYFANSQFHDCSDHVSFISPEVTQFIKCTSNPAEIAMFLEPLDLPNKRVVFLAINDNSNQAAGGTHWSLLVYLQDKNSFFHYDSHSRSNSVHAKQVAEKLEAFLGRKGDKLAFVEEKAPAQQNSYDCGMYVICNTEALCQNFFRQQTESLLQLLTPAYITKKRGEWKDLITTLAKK
In kind it is functional.

The source made the active and inactive calls.

Chain of Beta-galactosidase (Q8VNN2 whole entry): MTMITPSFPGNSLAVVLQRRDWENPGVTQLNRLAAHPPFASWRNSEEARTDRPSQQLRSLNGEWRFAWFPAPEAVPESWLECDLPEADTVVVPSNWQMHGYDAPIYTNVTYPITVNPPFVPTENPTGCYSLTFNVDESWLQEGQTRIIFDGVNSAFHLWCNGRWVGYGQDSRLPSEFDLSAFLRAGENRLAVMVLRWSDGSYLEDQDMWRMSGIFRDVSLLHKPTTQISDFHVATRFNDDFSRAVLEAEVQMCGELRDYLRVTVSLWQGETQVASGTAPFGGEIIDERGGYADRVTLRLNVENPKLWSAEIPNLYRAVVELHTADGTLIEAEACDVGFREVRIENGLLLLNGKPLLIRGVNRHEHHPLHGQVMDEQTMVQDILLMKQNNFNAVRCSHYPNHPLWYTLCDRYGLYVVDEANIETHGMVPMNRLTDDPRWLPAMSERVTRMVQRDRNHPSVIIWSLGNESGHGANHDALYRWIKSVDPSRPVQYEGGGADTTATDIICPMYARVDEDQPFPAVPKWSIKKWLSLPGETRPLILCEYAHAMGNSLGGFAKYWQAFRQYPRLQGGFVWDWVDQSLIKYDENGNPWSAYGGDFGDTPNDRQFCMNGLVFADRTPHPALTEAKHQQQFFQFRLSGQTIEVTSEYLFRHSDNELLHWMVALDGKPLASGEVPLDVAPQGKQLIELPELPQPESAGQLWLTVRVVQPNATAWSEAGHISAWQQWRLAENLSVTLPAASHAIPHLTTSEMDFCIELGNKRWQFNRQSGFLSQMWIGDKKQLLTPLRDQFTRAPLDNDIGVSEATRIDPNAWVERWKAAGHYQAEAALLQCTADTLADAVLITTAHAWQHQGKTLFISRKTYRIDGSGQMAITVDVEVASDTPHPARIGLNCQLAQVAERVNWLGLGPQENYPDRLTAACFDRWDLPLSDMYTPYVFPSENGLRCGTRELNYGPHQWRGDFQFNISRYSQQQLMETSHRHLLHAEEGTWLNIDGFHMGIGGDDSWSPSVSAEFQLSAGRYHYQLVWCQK
Chain of Nonstructural protein 1 (Q194T2 whole entry): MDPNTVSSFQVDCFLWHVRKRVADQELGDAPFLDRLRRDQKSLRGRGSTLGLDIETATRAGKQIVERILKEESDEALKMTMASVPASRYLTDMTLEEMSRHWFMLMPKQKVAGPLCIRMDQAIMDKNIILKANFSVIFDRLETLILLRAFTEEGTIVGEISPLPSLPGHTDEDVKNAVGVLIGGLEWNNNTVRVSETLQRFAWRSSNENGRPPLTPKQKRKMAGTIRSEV

Take `CCN1C(=O)C(=Cc2cccc(OC)c2Oc2ccc([N+](=O)[O-])cc2[N+](=O)[O-])SC1=S`: the concentration giving a half-maximal response (EC50) was 2.5 µM (inconclusive) in assay [1]; > 40 µM (inactive) in assay [2]; 3.45 µM (inconclusive) in assay [3]; 3.5 µM (active) in [5]; 4.38 µM (active) in assay [6]; 2.22 µM (active) in assay [9]. The IC50 in [4] was > 40 µM (not active); in [8], > 6.25 µM (active). The half-maximal activity concentration (AC50) in assay [7] is 0.853 µM (active); in assay [11] it was 1.89 µM (active); in assay [12], 5.77 µM (active); in [13], 7.11 µM (active). Further, the half-maximal cytotoxic concentration (CC50) in assay [10] is 3.96 µM (active).
Take `Oc1cc(Nc2ccncc2)cc2cccnc12`: the IC50 in assay [14] was > 20 µM (inactive); in assay [15], 8.54 µM (active); in assay [16], 6.9 µM (active); in assay [17] it was 5.11 µM (active).
For `Cn1cccc1/C=C1\SC(Nc2ccc(O)cc2)=NC1=O`, the EC50 in [3] was 0.926 µM (inconclusive); in assay [5], 0.357 µM (inconclusive); in assay [6] it was 0.362 µM (active); in [9], < 0.104 µM (active). The IC50 in assay [18] was 94.8 µM (active).
As to `COc1cccc(NC(=O)C(S)=NC2CCCCC2)c1`, the half-maximal inhibitory concentration (IC50) in assay [19] is 17.9 µM (active); in assay [20], 5.39 µM (active); in assay [21], 20.8 µM (active); in assay [22] it was 23 µM (active).
`COC(=O)c1ccc(N=Nc2ccccc2)cc1`: the 50% inhibitory concentration (IC50) is 11.6 µM (active) in assay [19], 5.11 µM (active) in assay [20], 13.2 µM (active) in assay [21] and 20.2 µM (active) in [22].
With `COc1ccccc1NC(=O)CCSc1ccc(C)cc1`, the IC50 in assay [19] was 18.1 µM (active); in [20], 11.2 µM (active); in assay [21], 34.9 µM (active); in [22] it was 37 µM (active).

By EC50 is commonly meant the concentration giving half of the maximal effect. What is called IC50 is the midpoint of a concentration-inhibition curve. One may read the AC50 as the concentration giving half of the maximal activity seen. The CC50 is the concentration giving 50% cytotoxicity.

The values above are taken from ChEMBL document CHEMBL1201862, “PubChem BioAssay data set” (2004).
